Patent US12390456B2, “Pridopidine for treating Huntington's disease” (PRILENIA NEUROTHERAPEUTICS LTD., priority 2013, dated 2025)
Like-named read-outs stand apart in the source and are kept apart here.

Assays:
patients with HD [1] = system: patients with HD
Procedure: Study ACR16C007 explored the efficacy of 44 mg pridopidine once daily (qd) in 58 patients.

patients with HD [2] = settings: 12 weeks; 67.5 mg, 90 mg and 112.5 mg bid
Procedure: The primary efficacy variable and endpoint for this study is change from baseline in the UHDRS-TMS (defined as the sum of all UHDRS motor domains ratings) at Week 12.
The change from baseline in TMS is analyzed using a Repeated Measures model (SAS® MIXED procedure with REPEATED sub-command). The model includes the following fixed effects: categorical week in trial by treatment interaction, center, neuroleptic use or no use and baseline TMS score. The unstructured covariance matrix for repeated observations within patients is used.

patients with HD [3] = settings: 26 weeks; 67.5 mg, 90 mg and 112.5 mg bid
Source text: The model includes the following fixed effects: categorical week in study by treatment interaction, center, neuroleptic use or no use, and baseline UHDRS-TMS score. The unstructured covariance matrix for repeated observations within patients is used.

patients with HD [4] = settings: 26 weeks; 67.5 mg, 90 mg and 112.5 mg bid; remark: listed apart in the source
Source text: The Modified Physical Performance Test (mPPT) is used instead of the Physical Performance Test (PPT). The Walk-12 scale in used instead of the Multiple Sclerosis Walking Scale (MSWS).

patients with HD [5] = settings: cited from earlier work

Compound | effect on mMS (patients with HD [1]; 45 mg bid, HART and MermaiHD) | improvement in UHDRS-TMS relative to placebo (patients with HD [1]; 45 mg bid, MermaiHD and HART) | findings on the TMS (patients with HD [1]; HART and MermaiHD) | efficacy in treating motor symptoms in HD (mMS and TMS) (patients with HD [1]; HART study, 10, 22.5 and 45 mg bid, 12 weeks) | changes from baseline in TMS (patients with HD [2]) | changes from baseline in UHDRS-TMS (patients with HD [3]) | changes from baseline in UHDRS-TMS (patients with HD [4]) | effect on motor components other than chorea (patients with HD [5]; in vivo) | improvement on the UHDRS-TMS (patients with HD [5]; p=0.075, 45 to 47 points at baseline) [points]
CCCN1CCC(c2cccc(S(C)(=O)=O)c2)CC1 [pridopidine, 4-[3-(methylsulfonyl)phenyl]-1-propyl-piperidine] | did not reach the pre-specified significance criteria | approximately 3 points | statistically significant findings | dose-dependent efficacy | Statistically significant changes | Statistically significant changes | Statistically significant changes |  | 
COc1cc2c(cc1OC)C1CC(=O)C(CC(C)C)CN1CC2 (stereo not drawn) [tetrabenazine] |  |  |  |  |  |  |  | no significant effect | 3.3
